Data taken from publication PMC13183915, “A platinum butterfly effect: small changes turn an anticancer drug into a non-toxic metalloantibiotic with in vivo efficacy” (npj Antimicrobials and Resistance, 2026).
Values joined by “and” are separate entries in the source; they are usually repeats but may differ in a detail not shown here. Equal values may be shown once.

Key:
B. subtilis 168CA = assay: DiSC3(5)-based membrane potential measurement; type: cell-based, Bacillus subtilis; settings: 3.125 µM Pt1, 25 µM Pt8
Description: The membrane potential was measured according to Winkel et al. with minor modifications. B. subtilis 168CA was grown in LB containing 50 µg/mL bovine serum albumin (BSA). Cells were transferred to black 96-well polystyrene microtiter plates after reaching an OD600 of 0.3. DiSC3(5) was added to a final concentration of 1 µM, maintaining a constant concentration of 1% DMSO to avoid precipitation of the dye. After the fluorescence baseline had stabilized, antibiotic compounds were added, and measurements were continued for 30 min. Fluorescence was recorded at an excitation wavelength of 610–30 nm and an emission wavelength of 675–50 nm in a BMG Clariostar Plus plate reader.

K. pneumoniae BAA 1705 = assay: Broth microdilution MIC, K. pneumoniae BAA 1705; type: cell-based, Klebsiella pneumoniae
Description: (§1) The data is given in supporting information (Table S5). Before starting the experiment, a single colony was picked from MHA plate, inoculated in MHBII and incubated overnight at 37 °C with shaking for 18–24 h to get the starter culture. Antibiotic susceptibility testing was conducted according to the CLSI (Clinical & Laboratory Standards Institute) guidelines using the broth microdilution assay. 10 mg/mL stock solutions of test compounds were prepared in DMSO. Bacterial cultures were inoculated in MHBII and optical density (OD) was measured at 600 nm, followed by dilution to achieve ~10^6 CFU/mL. The compounds were tested from 64 to 0.5 mg/L in two-fold serial diluted fashion with 2.5 μL of each concentration added to well of a 96-well round bottom microtiter plate. Later, 97.5 μL of bacterial suspension was added to each well containing either test compound or appropriate controls. […] The MIC is defined as the lowest concentration of the compound at which there is absence of visible growth. For each test compound, MIC determinations were carried out independently three times using duplicate samples.

S. aureus ATCC 29213 [1] = assay: Drug interaction study (chequerboard assay); type: cell-based
Description: All compounds were freshly prepared for the experiment. […] Following incubation, the fractional inhibitory concentration index (FICI) was calculated with the formula FICI = […], whereby FICA = MIC of drug A in combination/MIC of drug A alone and FICB = MIC of drug B in combination/MIC of drug B alone. A drug combination is considered synergistic when ∑FICI is ≤0.5, indifferent when ∑FICI is >0.5 to 4, and antagonistic when ∑FICI is >4.

S. aureus ATCC 29213 [2] = assay: Resistance induction by serial passage; type: cell-based; settings: after 36 days at ½ MIC
Description: The MICs of the passaged cultures were determined every 3 days and compared to that of wild type S. aureus ATCC 29213. MIC changes were recorded for 36 passages.

VRSA VRS 12 = assay: Broth microdilution MIC, VRSA VRS 12; type: cell-based, S. aureus; settings: VRSA VRS 12
Description: as §1

B. subtilis bSS82 = assay: Bacterial cytological profiling (BCP); type: cell-based, Bacillus subtilis
Excerpt: To get an overview of the cellular effects of the compounds, we employed bacterial cytological profiling (BCP). To this end, we used a strain intracellularly expressing green-fluorescent protein (GFP) from the strong, constitutive PrpsD promoter (B. subtilis bSS82[37]), stained with the membrane dye Nile red and the DNA dye DAPI. Combined with phase contrast microscopy, this setup allows simultaneous assessment of cell morphology, cell lysis, pore formation, membrane morphology, and nucleoid morphology in one assay.
BCP was performed according to Wenzel et al.[71]. In short, B. subtilis strain […] (PrpsD-gfp) was grown to an OD600 of 0.3 prior to splitting of parent cultures and addition of antibiotics. Samples were taken for microscopy after 30, 60, and 120 min of antibiotic treatment. Five minutes prior to sampling, cultures were stained with 0.5 µg/mL Nile red and 1 µg/mL DAPI for 5 min. Samples of 0.5 µL were then spotted onto 1% agarose slides[45] and images were taken immediately.
Cell length and DAPI intensity were analyzed using MicrobeJ[73]. To this end, the fit shape, rod-shaped setting was used with a minimum area of 0.5 µm, while all other settings remained at default. B. subtilis chains were seperated based on the membrane stain. Membrane stress was counted using the ObjectJ plugin[74], using the membrane setting to seperate individual cells in chains. Membrane damage was expressed as ratio of cells with visible Nile red foci and total detected cells. DNA compaction was analyzed by determining the area of the DNA and the whole cell are using advanced weka segmentation. Cells were segmented according to the GFP signal. […] Cells that were out of focus or lysed were excluded from the analysis. Statistical analysis was peformed using GraphPad Prism 10 as specified in the individual figure legends.

MSSA ATCC 29213 = assay: Broth microdilution MIC, MSSA ATCC 29213; type: cell-based, S. aureus
Description: as §1

[3] = test system: FtsZ (B. subtilis 2020, Pxyl-gfp-ftsZ); assay: Localization of FtsZ (cell division reporter); type: cell-based, Bacillus subtilis; settings: 3.12 µM Pt1, 25 µM Pt8; 30 and 60 min
Description: B. subtilis strains were grown in LB containing appropriate inducer concentrations as specified in Table S10. After reaching an OD600 of 0.3, cultures were split and treated with antibiotics. Samples were withdrawn after 30 and 60 min of treatment, spotted on glass slides covered with 1% agarose films, and immediately imaged.
Figure S8: Localization of FtsZ in B. subtilis 2020 (Pxyl-gfp-ftsZ). Cultures were treated with
(1 picture or pasted object on this page, not shown here)

MRSA NRS 191 = assay: Broth microdilution MIC, MRSA NRS 191; type: cell-based, S. aureus; settings: MRSA NRS 191
Description: as §1

MRSA NRS 193 = assay: Broth microdilution MIC, MRSA NRS 193; type: cell-based, S. aureus; settings: MRSA NRS 193
Description: as §1

C. albicans = test system: C. albicans; set-up: method as in PMID 36311838; settings: cited from earlier work
[4] = test system: methicillin-resistant S. aureus (MRSA) COL; assay: MIC assay, MRSA COL; type: cell-based, Staphylococcus aureus; settings: MRSA COL
[5] = test system: Galleria mellonella infection model; set-up: method as in PMID 34018686; settings: systematic infection model; cited from earlier work
[6] = 60 min, Pt1 3.125 µM, Pt8 25 µM, CisPt 100 µM

Which “membrane depolarization (DiSC(3)5)” value (B. subtilis 168CA) does the source give for `C1=C\CC/C=C\CC/1.[Cl][Pt][Cl]` [Pt1] here?
The value was “no membrane depolarization could be observed”.

And the MIC (K. pneumoniae BAA 1705)?
The MIC was > 64 µg/mL.

And the “FIC B” value (S. aureus ATCC 29213 [1]; antibiotic in combination with Pt1 / alone)?
The value was 1.

What about the “FIC (FICA+FICB)” value (S. aureus ATCC 29213 [1]; combination with Pt1) of the same compound?
The value was 2.

What about the Interference (S. aureus ATCC 29213 [1]; combination with Pt1, synergistic ≤0.5, indifferent >0.5 to 4, antagonistic >4) of the same compound?
Its Interference is “no interaction”.

What about the MIC (S. aureus ATCC 29213 [1]; compound alone, Table S8) of the same compound?
The MIC was 0.125 µg/mL.

What about the MIC after passaging (S. aureus ATCC 29213 [2]) of the same compound?
The MIC after passaging was 0.25 µg/mL.

What about the MIC (VRSA VRS 12) of the same compound?
The MIC was 0.67 to 1.34 µM.

And the “Nile red foci (membrane stress)” value (B. subtilis bSS82; 3.125 µM, not statistically supported)?
The value was “Nile red foci, indicating membrane stress, were observed”.

What about the DAPI fluorescence intensity (B. subtilis bSS82; [6]) of the same compound?
The DAPI fluorescence intensity was “significant reduction of the DAPI signal”.

And the “nucleoid compaction (cell area vs DAPI-stained nucleoid area)” value (B. subtilis bSS82; [6])?
The value was “clear nucleoid compaction”.

What about the MIC (MSSA ATCC 29213; MSSA ATCC 29213) of the same compound?
Its MIC is 0.67 µM.

And the MIC (MSSA ATCC 29213; MSSA ATCC 29213, Table S5)?
The MIC was 0.25 µg/mL.

What about the MIC (MSSA ATCC 29213; S.aureus ATCC 29213 (unpassaged), Table S9) of the same compound?
Its MIC is 0.0625 µg/mL.

What about the “localization of FtsZ” value [3] of the same compound?
The value was “remained unaffected”.

What about the MIC (MRSA NRS 191) of the same compound?
The MIC was 0.25 µg/mL and 0.67 µM.

What about the MIC (MRSA NRS 193) of the same compound?
The MIC was 0.25 µg/mL and 0.67 µM.

And the fungal load (C. albicans)?
The fungal load was “reduced the fungal load”.

What about the MIC [4] of the same compound?
The MIC was 3.125 µM.

And the in vivo activity [5]?
The in vivo activity was “no in vivo activity was observed”.
